Target: FXR (Homo sapiens (Human), UniProt Q96RI1)
Test: FXR EC50 (FXR agonist potency reported with each Example)
Format: cell-based

Sequence of FXR (Q96RI1 262-486): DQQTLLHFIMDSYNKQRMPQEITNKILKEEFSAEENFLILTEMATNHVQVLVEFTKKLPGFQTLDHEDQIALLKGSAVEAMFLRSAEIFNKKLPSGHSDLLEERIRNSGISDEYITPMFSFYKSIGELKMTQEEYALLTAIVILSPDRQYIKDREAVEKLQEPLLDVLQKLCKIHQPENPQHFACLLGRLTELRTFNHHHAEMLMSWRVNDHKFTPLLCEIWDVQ

| SMILES | EC50 [nM] |
| --- | --- |
| Cc1cc(C23CCC(CN(C(=O)C4CCC(F)(F)C4)c4cccc(-c5nc(C6CC6)no5)c4)(CC2)CC3)ccn1 (stereo not shown) [Example 33, N-(3-(3-cyclopropyl-1,2,4-oxadiazol-5-yl)phenyl)-3,3-difluoro-N-((4-(2-methylpyridin-4-yl)bicyclo[2.2.2]octan-1-yl)methyl)cyclopentane-1-carboxamide] | 4320 |
| CC(C)(C)c1nc(C23CCC(CN(C(=O)C45CC(F)(C4)C5)c4cc(-c5cn[nH]c5)ccn4)(CC2)CC3)no1 [Example 211, N-(4-(1H-pyrazol-4-yl)pyridin-2-yl)-N-((4-(5-(tert-butyl)-1,2,4-oxadiazol-3-yl)bicyclo[2.2.2]octan-1-yl)methyl)-3-fluorobicyclo[1.1.1]pentane-1-carboxamide] | 17 |
| CC(C)(O)c1coc(-c2cccc(N(CC34CCC(c5nc(C6CC6)no5)(CC3)CC4)C(=O)C3CCC(F)(F)C3)c2)n1 (stereo not shown) [Example 18, N-((4-(3-cyclopropyl-1,2,4-oxadiazol-5-yl)bicyclo[2.2.2]octan-1-yl)methyl)-3,3-difluoro-N-(3-(4-(2-hydroxypropan-2-yl)oxazol-2-yl)phenyl)cyclopentane-1-carboxamide] | 154 |
| CC(C)c1nc(C23CCC(CN(C(=O)C45CC(F)(C4)C5)c4cccc(-c5nc(C6CC6)no5)c4)(CC2)CC3)no1 [Example 120, N-(3-(3-cyclopropyl-1,2,4-oxadiazol-5-yl)phenyl)-3-fluoro-N-((4-(5-isopropyl-1,2,4-oxadiazol-3-yl)bicyclo[2.2.2]octan-1-yl)methyl)bicyclo[1.1.1]pentane-1-carboxamide] | 15 |
| Cn1nc(C2CC2)cc1C12CCC(CN(C(=O)C34CC(F)(C3)C4)c3cccc(-c4noc(C5(C)CC5)n4)c3)(CC1)CC2 [Example 166, N-((4-(3-cyclopropyl-1-methyl-1H-pyrazol-5-yl)bicyclo[2.2.2]octan-1-yl)methyl)-3-fluoro-N-(3-(5-(1-methylcyclopropyl)-1,2,4-oxadiazol-3-yl)phenyl)bicyclo[1.1.1]pentane-1-carboxamide] | 82 |
| Cn1nc(C2CC2)cc1C12CCC(CN(C(=O)C3CC(F)(F)C3)c3cccc(-c4nc(C5CC5)no4)c3)(CC1)CC2 [Example 127, N-(3-(3-cyclopropyl-1,2,4-oxadiazol-5-yl)phenyl)-N-((4-(3-cyclopropyl-1-methyl-1H-pyrazol-5-yl)bicyclo[2.2.2]octan-1-yl)methyl)-3,3-difluorocyclobutane-1-carboxamide] | 374 |
| CC(C)(C)c1noc(C23CCC(CN(C(=O)C4CN(C(=O)C(F)(F)F)C4)c4cccc(-c5nc(C6CC6)no5)c4)(CC2)CC3)n1 [Example 193, N-((4-(3-(tert-butyl)-1,2,4-oxadiazol-5-yl)bicyclo[2.2.2]octan-1-yl)methyl)-N-(3-(3-cyclopropyl-1,2,4-oxadiazol-5-yl)phenyl)-1-(2,2,2-trifluoroacetyl)azetidine-3-carboxamide] | 4870 |
| CC(C)(C)c1nc(C23CCC(CN(C(=O)C45CC(F)(C4)C5)c4cccc(-c5nnc(C6CC6)o5)c4)(CC2)CC3)no1 [Example 157, N-((4-(5-(tert-butyl)-1,2,4-oxadiazol-3-yl)bicyclo[2.2.2]octan-1-yl)methyl)-N-(3-(5-cyclopropyl-1,3,4-oxadiazol-2-yl)phenyl)-3-fluorobicyclo[1.1.1]pentane-1-carboxamide] | 43 |
| O=C(C1CC(C(F)F)C1)N(CC12CCC(c3nc(C4CC4)no3)(CC1)OC2)c1cccc(-c2nc(C3CC3)no2)c1 (stereo not shown) [Example 198, N-((1-(3-cyclopropyl-1,2,4-oxadiazol-5-yl)-2-oxabicyclo[2.2.2]octan-4-yl)methyl)-N-(3-(3-cyclopropyl-1,2,4-oxadiazol-5-yl)phenyl)-3-(difluoromethyl)cyclobutane-1-carboxamide] | 909 |
| CC(=O)NC1(c2nc(-c3cccc(N(CC45CCC(c6nc(C7CC7)no6)(CC4)CC5)C(=O)C45CC(F)(C4)C5)c3)no2)CC1 [Example 111, N-(3-(5-(1-acetamidocyclopropyl)-1,2,4-oxadiazol-3-yl)phenyl)-N-((4-(3-cyclopropyl-1,2,4-oxadiazol-5-yl)bicyclo[2.2.2]octan-1-yl)methyl)-3-fluorobicyclo[1.1.1]pentane-1-carboxamide] | 120 |
| O=C(C1CC(F)(F)C1)N(CC12CCC(c3nc(C4CC4)no3)(CC1)CC2)c1cccc(-c2nc(C(F)F)co2)c1 [Example 41, N-((4-(3-cyclopropyl-1,2,4-oxadiazol-5-yl)bicyclo[2.2.2]octan-1-yl)methyl)-N-(3-(4-(difluoromethyl)oxazol-2-yl)phenyl)-3,3-difluorocyclobutane-1-carboxamide] | 465 |
| Cn1nc(C23CCC(CN(C(=O)C45CC(F)(C4)C5)c4cccc(-c5noc(C(F)F)n5)c4)(CC2)CC3)cc1C1CC1 [Example 168, N-((4-(5-cyclopropyl-1-methyl-1H-pyrazol-3-yl)bicyclo[2.2.2]octan-1-yl)methyl)-N-(3-(5-(difluoromethyl)-1,2,4-oxadiazol-3-yl)phenyl)-3-fluorobicyclo[1.1.1]pentane-1-carboxamide] | 111 |

Now from value to compound:

| EC50 [nM] | SMILES |
| --- | --- |
| 166 | O=C(N(CC12CCC(c3nc(C4CC4)no3)(CC1)CC2)c1cccc(-c2nc(CCl)co2)c1)C12CC(F)(C1)C2 [Example 14, N-(3-(4-(chloromethyl)oxazol-2-yl)phenyl)-N-((4-(3-cyclopropyl-1,2,4-oxadiazol-5-yl)bicyclo[2.2.2]octan-1-yl)methyl)-3-fluorobicyclo[1.1.1]pentane-1-carboxamide] |
| 87 | CCOc1cc(-c2cccc(N(CC34CCC(c5nc(C6CC6)no5)(CC3)CC4)C(=O)C34CC(F)(C3)C4)c2)no1 [Example 25, N-((4-(3-cyclopropyl-1,2,4-oxadiazol-5-yl)bicyclo[2.2.2]octan-1-yl)methyl)-N-(3-(5-ethoxyisoxazol-3-yl)phenyl)-3-fluorobicyclo[1.1.1]pentane-1-carboxamide] |
| 111 | O=C(N(CC12CCC(c3nc(C4CC4)no3)(CC1)CC2)c1cccc(-c2ccn(C3COC3)n2)c1)C12CC(F)(C1)C2 [Example 149, N-((4-(3-cyclopropyl-1,2,4-oxadiazol-5-yl)bicyclo[2.2.2]octan-1-yl)methyl)-3-fluoro-N-(3-(1-(oxetan-3-yl)-1H-pyrazol-3-yl)phenyl)bicyclo[1.1.1]pentane-1-carboxamide] |
| 242 | CCCc1ncc(-c2cccc(N(CC34CCC(c5cc(C(F)(F)F)ccn5)(CC3)CC4)C(=O)C34CC(F)(C3)C4)c2)o1 [Example 52, 3-fluoro-N-(3-(2-propyloxazol-5-yl)phenyl)-N-((4-(4-(trifluoromethyl)pyridin-2-yl)bicyclo[2.2.2]octan-1-yl)methyl)bicyclo[1.1.1]pentane-1-carboxamide] |
| 43 | O=C(N(CC12CCC(c3nnc(C4CC4)o3)(CC1)CC2)c1cccc(-c2nc(C3CC3)no2)c1)C12CC(F)(C1)C2 [Example 137, N-(3-(3-cyclopropyl-1,2,4-oxadiazol-5-yl)phenyl)-N-((4-(5-cyclopropyl-1,3,4-oxadiazol-2-yl)bicyclo[2.2.2]octan-1-yl)methyl)-3-fluorobicyclo[1.1.1]pentane-1-carboxamide] |
| 48 | CC(C)(C)c1nc(C23CCC(CN(C(=O)C45CC(F)(C4)C5)c4cc(-c5nc(C6CC6)no5)ccn4)(CC2)CC3)no1 [Example 210, N-((4-(5-(tert-butyl)-1,2,4-oxadiazol-3-yl)bicyclo[2.2.2]octan-1-yl)methyl)-N-(4-(3-cyclopropyl-1,2,4-oxadiazol-5-yl)pyridin-2-yl)-3-fluorobicyclo[1.1.1]pentane-1-carboxamide] |
| 19.8 | O=C(N(CC12CCC(c3nc(C4CC4)no3)(CC1)CC2)c1cccc(-c2cc(C3CC3)on2)c1)C12CC(F)(C1)C2 [Example 57, N-((4-(3-cyclopropyl-1,2,4-oxadiazol-5-yl)bicyclo[2.2.2]octan-1-yl)methyl)-N-(3-(5-cyclopropylisoxazol-3-yl)phenyl)-3-fluorobicyclo[1.1.1]pentane-1-carboxamide] |
| 512 | CCOC(=O)c1coc(-c2cccc(N(CC34CCC(c5nc(C6CC6)no5)(CC3)CC4)C(=O)C34CC(F)(C3)C4)c2)n1 [Example 13, Ethyl 2-(3-(N-((4-(3-cyclopropyl-1,2,4-oxadiazol-5-yl)bicyclo[2.2.2]octan-1-yl)methyl)-3-fluorobicyclo[1.1.1]pentane-1-carboxamido)phenyl)oxazole-4-carboxylate] |
| 205 | O=C(N(CC12CCC(c3nc(C4CC4)no3)(CC1)OC2)c1cccc(-c2nc(C3CC3)no2)c1)C12CC(F)(C1)C2 [Example 196, N-((1-(3-cyclopropyl-1,2,4-oxadiazol-5-yl)-2-oxabicyclo[2.2.2]octan-4-yl)methyl)-N-(3-(3-cyclopropyl-1,2,4-oxadiazol-5-yl)phenyl)-3-fluorobicyclo[1.1.1]pentane-1-carboxamide] |
| 647 | COc1ccc(NC(=O)N(CC23CCC(c4nc(C5CC5)no4)(CC2)CC3)c2cccc(-c3nc(C4CC4)no3)c2)cc1 [Example 96, 1-((4-(3-cyclopropyl-1,2,4-oxadiazol-5-yl)bicyclo[2.2.2]octan-1-yl)methyl)-1-(3-(3-cyclopropyl-1,2,4-oxadiazol-5-yl)phenyl)-3-(4-methoxyphenyl)urea] |
| 582 | COc1ncc(C23CCC(CN(C(=O)C45CC(F)(C4)C5)c4cccc(-c5nc(C6CC6)no5)c4)(CC2)CO3)cn1 [Example 140, N-(3-(3-Cyclopropyl-1,2,4-oxadiazol-5-yl)phenyl)-3-fluoro-N-((1-(2-methoxypyrimidin-5-yl)-2-oxabicyclo[2.2.2]octan-4-yl)methyl)bicyclo[1.1.1]pentane-1-carboxamide] |
| 281 | O=C(N(CC12CCC(c3nc(C4CC4)no3)(CC1)OC2)c1cccc(-c2cc(C3CC3)on2)c1)C12CC(F)(C1)C2 [Example 199, N-((1-(3-cyclopropyl-1,2,4-oxadiazol-5-yl)-2-oxabicyclo[2.2.2]octan-4-yl)methyl)-N-(3-(5-cyclopropylisoxazol-3-yl)phenyl)-3-fluorobicyclo[1.1.1]pentane-1-carboxamide] |
| 70 | O=C(N(CC12CCC(c3nc(C4CC4)cs3)(CC1)CC2)c1cccc(-c2cnc(C3CC3)o2)c1)C12CC(F)(C1)C2 [Example 97, N-(3-(2-cyclopropyloxazol-5-yl)phenyl)-N-((4-(4-cyclopropylthiazol-2-yl)bicyclo[2.2.2]octan-1-yl)methyl)-3-fluorobicyclo[1.1.1]pentane-1-carboxamide] |
